From patent US10017524B2, “Compound and pharmaceutical composition for neuropsychological disorder or malignant tumor” (KYOTO UNIVERSITY, priority 2012, dated 2018)
Values belong to the compound of their own block, whether it stands above or below them.

What was measured:
[1] = test system: phosphorylation of a threonine residue at position 212 of tau protein by DYRK1A protein; assay: Inhibitory activity on phosphorylation of tau protein in cultured cells expressing tau and DYRK1A (western blot, Thr212); format: cell-based; settings: phospho-Thr212 tau
Method: The inhibitory activity of the compounds synthesized in the production examples on the phosphorylation of tau protein was evaluated by an evaluation system using the following cultured cells.
The cultured cells that can induce the expressions of tau protein and DYRK1A protein individually and that allow the phosphorylation of the tau protein to be evaluated depending on the activity of the DYRK1A protein were used in the evaluation system. […] Therefore, the inhibitory activity on the phosphorylation of the tau protein can be evaluated by inducing the expressions of both the tau protein and the DYRK1A protein, and evaluating the degree of phosphorylation of a threonine residue at position 212 of the tau protein.
The compounds 1, 4, and 6 to 9 (10 μM) were added to the evaluation system, and the phosphorylation of the tau protein was detected with the antibody that specifically recognizes the phosphorylation of a threonine residue at position 212 of the tau protein. […] The “control” represents the result of adding no compound.
The inhibitory activity of the compounds 1 and 2 on the phosphorylation of tau protein was evaluated in the same manner as the Experimental example 1.
(§1) The “control” represents the result of adding no compound.
The inhibitory activity of the compounds 3, 6, and 9 to 15 on the phosphorylation of tau protein was evaluated in the same manner as the experimental example 1. FIGS. 7 to 9 show an example of the results.

[2] = Intracerebral transferability after caudal vein administration; format: in vivo; settings: male, Wistar, intravenous, rat, 2 mg/head
Method: The intracerebral transferability of the compound 1 was evaluated under the following conditions. […] In other words, the intracerebral transferability of the compound 1 was confirmed.
Experimental animal: 8-week-old male Wistar rat (about 300 g), caudal vein administration
Administered vehicle: 20% PPG/8% tween 80/saline (2 mL/head)
Compound dosage: 2 mg/head
Sampling time: 3 minutes after administration for plasma; 7 minutes after administration for cerebrospinal fluid

Oral absorbability = format: in vivo, B6J mouse; settings: mouse, oral administration, 100 mg/kg, 5% gum arabic, plasma
Method: The oral absorbability of the compound 1 was evaluated under the following conditions.

DYRK1A = DYRK1A (Homo sapiens, UniProt Q13627); assay: DYRK1A inhibitory capacity in vitro; format: biochemical
Text: as §1

[3] = test system: phosphorylation of tau protein in the brain; assay: Inhibition of stress-induced phosphorylation of tau protein in the brain; format: in vivo; settings: mice, 100 mg/kg before stress (ice-cold water 5 minutes), brain tissue western blot
Method: The inhibitory activity of the compounds 1 and 2 on the phosphorylation of tau protein in the brain was evaluated. In the evaluation, a system was used which induced the phosphorylation of tau protein by imposing stress on mice (i.e., bathing the mice in ice-cold water for 5 minutes).

[4] = Oral absorbability and intracerebral transferability (plasma and brain tissue concentration); format: in vivo; settings: ICR mouse, 100 mg/kg; for Kp / half-life: male; for Kp: brain tissue / plasma, read-out: Brain tissue/blood ratio (B/P: mL/g); for half-life: plasma and brain tissue, read-out: Half-life in blood and in brain tissue
Method: The oral absorbability and the intracerebral transferability of the compounds 1 and 2 were evaluated under the following conditions. FIG. 6 and Table 1 show an example of the results.
Experimental animal: 7-week-old male ICR mouse, oral administration
Administered vehicle: 0.5% carboxymethylcellulose
Compound dosage: 100 mg/kg
FIG. 6 and Table 1 show an example of the results of measuring a plasma concentration and a brain tissue concentration after oral administration of the compounds 1 and 2. As shown in FIG. 6 and Table 1, the results confirmed that the compounds 1 and 2 had both oral absorbability and intracerebral transferability.

[5] = test system: retinoblastoma cell lines WERI; assay: Inhibition of growth of cancer cells (Alamar Blue); format: cell-based
Method: (§2) Specifically, the cells were seeded on a 24 Well plate, and the compounds at a predetermined concentration were added. After cultivation for 5 days, the number of cells was calculated by detecting the fluorescence intensity with Alamar Blue. The culture medium containing the compounds was replaced every day. FIGS. 10 to 12 show an example of the results.

[6] = test system: memory and learning disabilities induced by amyloid-β peptide (25-35); assay: Remedial action on memory and learning disabilities induced by amyloid-β peptide (water maze, probe test); format: in vivo, Swiss mice; settings: mice, amyloid-β icv, 100 mg/kg twice a day
Method: The remedial action of the compound 2 on memory and learning disabilities was evaluated. In the evaluation, amyloid-β peptide was administered into the cerebral ventricles of mice, and an evaluation system that induces memory and learning disabilities was used (Maurice et al., 1996). The tests were performed using 6-week-old male Swiss mice, which were divided into groups of 12 (n=12). Amyloid-β peptide (25-35, sequence: Gly-Ser-Asn-Lys-Gly-Ala-Ile-Ile-Gly-Leu-Met) (SEQ ID NO: 1) or scrambled amyloid-β (25-35, sequence: Ala-Lys-Ile-Gly-Asn-Ser-Ile-Gly-Leu-Met-Gly) (SEQ ID NO: 2) which was used as control peptide, was dissolved in distilled water, and each of the peptide solutions was incubated at 37° C. for 4 days.
The compound 2 for medication was dissolved in DMSO, and then diluted with 0.5% methylcellulose, thereby preparing a 10 mg/mL solution. […]
In order to evaluate a reference memory, water maze was performed three times a day using a circular pool (140 cm in diameter and 40 cm in height) and a platform (10 cm in diameter) between the 8th day and the 12th day of the tests. […] During the recording, the total time the mice spent in one-fourth of the area of the circle, including the place where the platform had been located until the previous day, was recorded. […]

[7] = test system: human lung adenocarcinoma-derived cell lines (PC-9); assay: Growth inhibition, microscopic observation; format: cell-based; settings: PC-9 lines, microscope
[8] = test system: PC-9-GR-step lines (gefitinib-resistant sub-lines of PC-9); assay: Growth inhibition, microscopic observation; format: cell-based, human; settings: microscope
PC-9-GR-high lines = assay: Growth inhibition, microscopic observation; format: cell-based, human; settings: microscope
[9] = test system: MDA-MB-453 human breast cancer cells (triple-negative); assay: Growth inhibition, adherent and non-adherent culture (Alamar Blue); format: cell-based; settings: MDA-MB-453, cells cultured to prevent adhering
Method: as §2
(§3) In addition, the effect was also confirmed when the target cells were cultured to prevent them from adhering to each other.

[10] = test system: MDA-MB-468 human breast cancer cells (triple-negative); assay: as above; format: cell-based; settings: MDA-MB-468, cells cultured to prevent adhering
Method: as §2, §3

[11] = compounds of 10 μM, cells expressing tau and DYRK1A

concentration at 7 min ([2]; cerebrospinal fluid, 7 minutes after administration): 1.88 µM
concentration at 3 min ([2]; plasma, 3 minutes after administration): 13.5 µM
oral absorbability (Oral absorbability): confirmed
IC50 (DYRK1A): 0.049 µM
Maximum blood concentration [4]: 1900 ng/mL
Maximum brain tissue concentration [4]: 1700 ng/g
Time to maximum concentration in blood and in brain tissue [4]: within 15 minutes
Kp [4]: ~0.9
half-life [4]: ≤ 1 h
SMILES: CCN1/C(=C/C(C)=O)Sc2ccc3c(c21)CCO3 [Compound 1, (Z)-1-[1-ethyl-7,8-dihydrobenzofuro[4,5-d]thiazol-2(1H)-ylidene]propan-2-one]
inhibitory effect on the phosphorylation of the tau protein ([1]; compounds at 0.3 to 10 μM): significant inhibitory effect
inhibitory effect on the phosphorylation of the tau protein [1, 11]: significant inhibitory effect
inhibition of stress-induced phosphorylation of the tau protein in brain [3]: could inhibit the stress-induced phosphorylation of the tau protein
inhibitory effect on the growth of the cancer cells [5]: inhibitory effect

IC50 (DYRK1A): 0.04 µM
Maximum blood concentration [4]: 8400 ng/mL
Maximum brain tissue concentration [4]: 8500 ng/g
Time to maximum concentration in blood and in brain tissue [4]: 2 h
Kp [4]: ~1
half-life [4]: ≥ 4 h
SMILES: CCN1/C(=C/C(C)=O)Sc2ccc3occc3c21 [Compound 2, (Z)-1-[1-ethyl-7,8-benzofuro[4,5-d]thiazol-2(1H)-ylidene]propan-2-one]
inhibitory effect on the phosphorylation of the tau protein ([1]; compounds at 0.3 to 10 μM): significant inhibitory effect
inhibition of stress-induced phosphorylation of the tau protein in brain [3]: could inhibit the stress-induced phosphorylation of the tau protein
reference memory in water maze (time to reach the platform) ([6]; 8th to 12th day): improved the reduced memory and learning abilities
probe test (time spent around the platform) ([6]; 13th day): improved the reduced memory and learning abilities

SMILES: O=C1NC(=S)S/C1=C\c1ccc2c(c1)CCO2 [Compound 4, (Z)-5-[(2,3-dihydrobenzofuran-5-yl)methylene]-2-thioxothiazolidin-4-one]
inhibitory effect on the phosphorylation of the tau protein [1, 11]: inhibitory effect

SMILES: O=C1NC(=S)S/C1=C\c1ccc2oc3ccccc3c2c1 [Compound 6, (Z)-5-[(dibenzo[b,d]furan-2-yl)methylene]-2-thioxothiazolidin-4-one]
inhibitory effect on the phosphorylation of the tau protein [1, 11]: significant inhibitory effect

SMILES: N=C1NC(=O)/C(=C/c2ccc3c(c2)CCO3)S1 [Compound 7, (Z)-5-[(2,3-dihydrobenzofuran-5-yl)methylene]-2-iminothiazolidin-4-one]
inhibitory effect on the phosphorylation of the tau protein [1, 11]: significant inhibitory effect

SMILES: N=C1NC(=O)/C(=C/c2ccc3occc3c2)S1 [Compound 8, (Z)-5-[(benzofuran-5-yl)methylene]-2-iminothiazolidin-4-one]
inhibitory effect on the phosphorylation of the tau protein [1, 11]: significant inhibitory effect

SMILES: N=C1NC(=O)/C(=C/c2ccc3oc4ccccc4c3c2)S1 [Compound 9, (Z)-5-[(dibenzo[b,d]furan-2-yl)methylene]-2-iminothiazolidin-4-one]
inhibitory effect on the phosphorylation of the tau protein [1, 11]: inhibitory effect

SMILES: CCN1/C(=C/C(C)=O)Sc2ccc3oc4cc(C)c(C)cc4c3c21 [Compound 10, (Z)-1-(8,9-dimethyl-1-ethylbenzo[2,3]benzofuro[4,5-d]thiazol-2(1H)-ylidene)propan-2-one]
inhibitory effect on the phosphorylation of the tau protein [1, 11]: inhibitory effect

SMILES: CCN1/C(=C/C(C)=O)Sc2ccc3oc4cc(C)ccc4c3c21 [Compound 11, (Z)-1-(1-ethyl-8-methylbenzo[2,3]benzofuro[4,5-d]thiazol-2(1H)-ylidene)propan-2-one]
inhibitory effect on the phosphorylation of the tau protein [1, 11]: inhibitory effect

SMILES: CCN1/C(=C/C(C)=O)Sc2ccc3oc4ccc(C)cc4c3c21 [Compound 12, (Z)-1-(1-ethyl-9-methylbenzo[2,3]benzofuro[4,5-d]thiazol-2(1H)-ylidene)propan-2-one]
inhibitory effect on the phosphorylation of the tau protein [1, 11]: inhibitory effect
apoptosis-inducing activity on the cancer cells [7]: excellent apoptosis-inducing activity
apoptosis-inducing activity on the cancer cells [8]: excellent apoptosis-inducing activity
apoptosis-inducing activity on the cancer cells (PC-9-GR-high lines): excellent apoptosis-inducing activity

SMILES: CCN1/C(=C/C(C)=O)Sc2ccc3oc4cc(Cl)ccc4c3c21 [Compound 13, (Z)-1-(8-chloro-1-ethylbenzo[2,3]benzofuro[4,5-d]thiazol-2(1H)-ylidene)propan-2-one]
inhibitory effect on the phosphorylation of the tau protein [1, 11]: inhibitory effect

SMILES: CCN1/C(=C/C(C)=O)Sc2ccc3oc4ccc(Cl)cc4c3c21 [Compound 14, (Z)-1-(9-chloro-1-ethylbenzo[2,3]benzofuro[4,5-d]thiazol-2(1H)-ylidene)propan-2-one]
inhibitory effect on the phosphorylation of the tau protein [1, 11]: inhibitory effect

SMILES: O=C1NC(=S)N/C1=C\c1ccc2oc3ccccc3c2c1 [Compound 15, (Z)-5-[(dibenzo[b,d]furan-2-yl)methylene]-2-thioxoimidazolidin-4-one]
inhibitory effect on the phosphorylation of the tau protein [1, 11]: inhibitory effect
inhibitory effect on the anchorage-independent growth [9]: inhibitory effect
inhibitory effect on the anchorage-independent growth [10]: inhibitory effect
